From patent US6660283B2, “Use of cinnamic acid, or of at least one of its derivatives in a cosmetic composition” (Societe L'Oreal S.A., priority 1997, dated 2003)

Tested on: reconstructed human epidermis
Assay: Incorporation of 14C acetate into total lipids of reconstructed human epidermis (Skinethic)
Format: cell-based
Conditions: for percentage of stimulation (incorporation of 14C acetate, lipid synthesis): relative to untreated cells = 100
Method: The study is carried out by measuring the incorporation of carbon-14-labelled acetate in models of reconstructed human epidermis sold by the company Skinethic, in which the composition of total lipids is close to that of normal human epidermis.
The reconstructed human epidermis cultures are prepared according to the supplier's recommendations.
Cinnamic acid, at concentrations of 10^−5, 10^−6 and 10^−7 M, is placed in contact for 72 hours with reconstructed human epidermes after they have been cultured for 14 days under the conditions recommended by the supplier. The labelling with ^14C acetate (sodium [2-^14C]-acetate sold by Amersham, 59 mCi/mmol) is carried out 24 hours after placing the test product in contact with the culture, i.e. during the final 48 hours of culturing, at a rate of 0.5 μCi of ^14C acetate per culture.
At the end of culturing, after washing the epidermes with phosphate buffer (PBS), the epidermides are dissociated and the cells are lysed with 0.5M perchloric acid on ice. The lysates are then extracted with a methanol/chloroform mixture (2:1), centrifuged and the pellets obtained are extracted again under the same conditions as before. The lipids are separated out by addition of PBS and chloroform (Blight-Byer technique). The organic phase containing the lipids is taken off and the radioactive incorporated in this phase is determined by liquid scintillation. The organic phase is then dried under a stream of nitrogen. Thin layer plate chromatography on Merck K60 plates is carried out using, as eluent, a chloroform/methanol/water mixture (50/18/2.6) to separate the phospholipids, or a hexane/ether/acetic acid mixture (15/5.6/0.19) to separate the neutral lipids.
The plates are then autoradiographed for 24 hours and the chromatograms are analysed by densitometry using the One-D-Scan software from the company Scanalytics.
The results are evaluated relative to a control consisting of cells which have not been treated with cinnamic acid.
A positive control (10^−4 M trifluoperazine), which is known to stimulate lipid synthesis, and a negative control (10^−6 M retinoic acid), which is known to inhibit lipid synthesis, are introduced into the test as reference.

O=C(O)C=Cc1ccccc1 [cinnamic acid]
percentage of stimulation (incorporation of 14C acetate, lipid synthesis) (10^−5 M, 72 hours contact): 113%
percentage of stimulation (incorporation of 14C acetate, lipid synthesis) (10^−6 M, 72 hours contact): 109%
percentage of stimulation (incorporation of 14C acetate, lipid synthesis) (10^−7 M, 72 hours contact): 124%
effect on incorporation of 14C acetate (lipid synthesis), in words (reconstructed human epidermis, 10^−5 to 10^−7 M): significantly stimulates

CC1=C(/C=C/C(C)=C/C=C/C(C)=C/C(=O)O)C(C)(C)CCC1 [retinoic acid, reference compound]
percentage of stimulation (incorporation of 14C acetate, lipid synthesis) (10^−6 M, 72 hours contact): 82%

CN1CCN(CCCN2c3ccccc3Sc3ccc(C(F)(F)F)cc32)CC1 [trifluoroperazine, trifluoperazine, reference compound]
percentage of stimulation (incorporation of 14C acetate, lipid synthesis) (10^−4 M): 122%
